Patent publication US10537567B2, “Kinase inhibitors for treatment of disease” (BioAxone BioSciences, Inc., priority 2017, dated 2020)

Tests used:
468-target kinome screen = test: DiscoverX kinome screen, off-target hits; assay type: binding, human; details: 10,000 nM API
Protocol: (§1) A 468-target kinome screen and a safety screen were carried out to examine the off-target profiles of different kinase inhibitors (DiscoverX, Freemont, Calif.). The kinome screen is a binding assay where API interference of kinase domain/substrate binding is assessed as percent of control. Less than 10% binding (or >90% binding inhibition) is most biologically relevant and considered as a ‘hit’. BA-2017 only had 7 off-target hits compared to BA-1049 and Netarsudil, which both had 11 hits (Table 1) (Studirvant et al. 2016 Bioorg Med Chem Lett. 26(10):2475-2480). […] Published data for Netarsudil were with 200 times less API. […] The NET activity likely helps to decrease IOP but might increase hyperemia, while the SERT activity might have long-term safety consequences (Costagliola et al. 2004 CNS drugs 18(8): p. 475-484).
(§2) In the kinome screen BA-2017 had fewer off-target hits (Table 1) than BA-1049. […] An interesting hit from the kinome screen was on Abl (Table 1), an oncogene that also regulates many cellular activities, including vascular leakage.

[1] = target: T1, norepinephrine transporter (NET) (Homo sapiens, UniProt P23975); test: Safety screen; assay type: biochemical; details: 10,000 nM API
T1 construct: purchased DiscoverX
Protocol: as §1
(§3) These targets include GPCRs, transporters, ion channels, nuclear receptors, non-kinase enzymes.

[2] = target: T2, serotonin transporter (SERT) (Homo sapiens, UniProt P31645); test: Safety screen; assay type: biochemical; details: 10,000 nM API
T2 construct: purchased DiscoverX
Protocol: as §1, §3

[3] = Microbead model of glaucoma in rats; assay type: in vivo, Sprague Dawley rat; details: ocular treatment vs vehicle-treated eyes
Protocol: The different markers of RGC dysfunction are examined in a rat model of glaucoma where latex microspheres are injected into the anterior chamber of the eye to block outflow through the TM. In Sprague Dawley rat RGC loss is 20%-30% over a 4-6 weeks period when 20 μL of beads are injected weekly. This severe model is used to start to determine the amount of API in the retina 1 hour after topical installation of the API/latanoprost combination. Rats are topically dosed with API/Latanoprost for a week after microbead injection, a time when IOP is elevated. The right eyes serve as non-glaucomatous controls.
BIII tubulin expression is decreased in RGCs in glaucoma (Soto et al. 2008 J Neurosci. 28(2): p. 548-561). Loss of BIII tubulin is a biomarker of early RGC degeneration. […] BIII tubulin is observed in radial sections, and RGCs identified by labeling with Brin3. For quantitative comparisons, control and treated radial cryostat sections are cut in the same block and mounted on the same slide, and labeled together with BIII isotype-specific antibodies.
ROCK activation is examined in the same microbead model of glaucoma in rats 4 weeks after daily topical dosing in rats with left and right eyes injected with beads. API alone or API+Latanoprost are delivered once daily by 15 μL eye drop instilled into the left eyes (glaucoma/treated) and right eyes left untreated (glaucoma/untreated). […]

retinal ganglion cells = test: RGC dendritic arbor in Hb9-GFP glaucoma mice; assay type: in vivo; details: 1 month, weekly microbead injection, daily eye drops
Description: To evaluate changes in the RGC dendritic arbor in glaucoma and the ability of the API to prevent neuronal loss in the retina, mice are used which carry an enhanced GFP (eGFP) driven by the Hb9 promoter (B6.Cg-Tg(Hlxb9-GFP)1Tmj/J; Jackson Labs), which directs GFP expression to the on-off direction-sensitive ganglion cell (ooDSGC) sub-population of retinal ganglion cells (Trenholm et al. 2011 Neuron. 71(4): p. 683-694). These mice allow visualization of non-overlapping RGCs for unambiguous identification of individual dendritic arbors. Treated and control glaucoma eyes are examined, as well as normal eyes 1 month after weekly microbead injection and daily eye drops. The eyes are fixed by perfusion and prepared for retinal whole mounts, and the labeled ganglion cells visualized by fluorescence microscopy. Images are imported into ImageJ and analyzed for dendritic field area (using the polygon tool to join points along the perimeter of the field) and subjected to Sholl analysis using the plugin for Image J to be able to characterize dendritic branching and complexity of normal, glaucoma/treated and glaucoma/control RGCs.

[4] = test system: rat midbrain dopaminergic neurons; test: MPP+ toxicity in cultured midbrain dopaminergic neurons; assay type: cell-based; details: 0.25-50 μM, 20 μM MPP+, 48 hours
Protocol: These in vitro experiments are conducted using primary cultures of embryonic rat midbrain dopaminergic neurons. MPP+ is known to cause the death of cultured midbrain dopaminergic neurons. Rho kinase and Abl kinase inhibitors are tested individually at varying concentrations for their ability to prevent MPP+-induced cell death.
Primary cultures of rat midbrain dopaminergic neurons are established from cells acutely isolated from the ventral midbrain of embryonic day 14 rats (Charles River; Wilmington, Mass.). The cells are plated in serum-free conditions (Neurobasal plus B-27 Supplements; Thermo-Fisher; Waltham, Mass.) onto glass coverslips coated with poly-ornithine and laminin as attachment factors. Cells are cultured overnight on the coated coverslips in a 37° C./5% CO2 tissue culture incubator prior to the initiation of the varying treatments.
On day 3 after plating, MPP+(Sigma Chemical; St. Louis, Mo.) is added to the medium at 20 μM final concentration. The cultures are allowed to continue for an additional 48 hours. At the end of the culture period, the cells are washed, and then fixed with 4% paraformaldehyde solution prior to permeabilization and blocking with 10% normal goat serum in PBS. […] Specimens are examined using fluorescence microscopy and the numbers of TH-positive neurons with non-pyknotic nuclei are counted in 6 to 8 high power fields per specimen.

[5] = Total body irradiation (TBI) mouse model, GI histopathology; assay type: in vivo, mice; details: dosing for three days, 3 days after irradiation
Protocol: At day 0, TBI is carried out at a lethal dose of 8.0 Gy (Harlan mice) or 9.0 Gy (Coats mice)-doses that are expected to cause death in about 90% of animals within 30 days. […] Mice are monitored for survival up to day 30. During this period, mice were deprived of all supportive care, including antibiotics, to increase the stringency of the survival protocol. Survival is assessed with Kaplan-Meir curves. […] Mice are euthanized at 3 days and GI tissue is paraffin-embedded, sectioned and immunolabeled with rabbit anti-mouse leucine-rich-repeat-containing G-protein-coupled receptor 5 (LGR5), a GI stem cell marker that is expressed upon GI injury.

ROCK2 = ROCK2 (Homo sapiens, UniProt O75116); test: DiscoverX kinome screen; assay type: binding; parameters: are incubated with DNA-tagged kinase domains tagged; DNA tag; purchased DiscoverX; details: 10,000 nM API
Protocol: as §1, §2

T1 sequence (P23975 whole entry): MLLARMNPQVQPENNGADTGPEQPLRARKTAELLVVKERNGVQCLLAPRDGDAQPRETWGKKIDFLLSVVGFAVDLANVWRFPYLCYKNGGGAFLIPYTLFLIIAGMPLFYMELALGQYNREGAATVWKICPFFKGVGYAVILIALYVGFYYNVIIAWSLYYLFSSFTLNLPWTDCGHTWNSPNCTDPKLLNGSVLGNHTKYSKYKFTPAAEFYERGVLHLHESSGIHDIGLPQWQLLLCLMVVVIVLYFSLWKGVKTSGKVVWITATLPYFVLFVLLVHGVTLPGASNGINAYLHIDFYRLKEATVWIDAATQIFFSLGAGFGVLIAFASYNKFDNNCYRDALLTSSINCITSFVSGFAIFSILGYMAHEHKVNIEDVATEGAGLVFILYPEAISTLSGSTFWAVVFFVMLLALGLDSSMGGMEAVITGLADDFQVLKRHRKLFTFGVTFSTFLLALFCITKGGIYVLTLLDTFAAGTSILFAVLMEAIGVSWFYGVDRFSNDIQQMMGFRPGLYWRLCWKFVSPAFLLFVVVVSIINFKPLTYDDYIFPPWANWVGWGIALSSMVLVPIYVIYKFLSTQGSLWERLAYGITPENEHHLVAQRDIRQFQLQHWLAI
T2 sequence (P31645 whole entry): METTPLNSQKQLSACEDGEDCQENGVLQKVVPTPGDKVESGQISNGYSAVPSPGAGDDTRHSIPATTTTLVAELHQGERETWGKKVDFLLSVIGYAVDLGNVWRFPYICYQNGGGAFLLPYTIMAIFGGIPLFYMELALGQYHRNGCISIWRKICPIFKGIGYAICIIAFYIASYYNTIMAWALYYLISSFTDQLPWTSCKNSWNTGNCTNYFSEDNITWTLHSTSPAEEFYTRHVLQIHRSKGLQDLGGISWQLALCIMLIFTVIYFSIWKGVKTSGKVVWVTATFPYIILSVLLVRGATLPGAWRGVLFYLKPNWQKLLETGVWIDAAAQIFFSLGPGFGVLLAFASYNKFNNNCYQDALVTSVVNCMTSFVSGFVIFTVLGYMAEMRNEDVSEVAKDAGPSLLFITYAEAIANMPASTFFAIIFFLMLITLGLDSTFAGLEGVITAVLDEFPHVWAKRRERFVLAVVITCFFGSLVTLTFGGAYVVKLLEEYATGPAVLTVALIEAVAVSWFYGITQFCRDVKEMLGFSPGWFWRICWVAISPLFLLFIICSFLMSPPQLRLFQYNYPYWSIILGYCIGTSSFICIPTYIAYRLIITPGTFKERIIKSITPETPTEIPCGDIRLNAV
Sequence of ROCK2 (O75116 92-354 limits assumed): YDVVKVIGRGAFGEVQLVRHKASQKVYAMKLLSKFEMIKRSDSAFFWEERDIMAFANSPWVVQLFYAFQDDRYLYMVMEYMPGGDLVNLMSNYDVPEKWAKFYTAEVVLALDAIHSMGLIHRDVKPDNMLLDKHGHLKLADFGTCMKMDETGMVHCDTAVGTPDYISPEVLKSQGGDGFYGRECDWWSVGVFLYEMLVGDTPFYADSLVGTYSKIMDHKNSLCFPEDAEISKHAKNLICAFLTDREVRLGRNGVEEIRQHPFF

SMILES	Kinome Screen Other (other off-target kinase) (468-target kinome screen)	# Hits <10% binding (468-target kinome screen; hit = less than 10% binding (>90% binding inhibition))	Safety Screen % inhibition NET [1]	Safety Screen % inhibition SERT [2]	BIII tubulin immunostaining in glaucoma eyes [3]	Retinal ganglion cell dendritic arbors (retinal ganglion cells)	Number of surviving TH-positive neurons [4]	Radiation-induced jejunal damage (LGR5 expression) [5]	Kinome Screen % inhibition ROCK2 (ROCK2)
C[C@H](N)C1CCN(S(=O)(=O)c2cccc3cnccc23)CC1 [BA-1076]	(ABL)	7	none	none	prevents the loss of BIII tubulin immunostaining	protect and/or restore retinal ganglion cell dendritic arbors	dose-dependent increase in the number of surviving neurons	mitigated radiation-induced jejunal damage	>99%
C[C@H](N)C1CCN(S(=O)(=O)c2cccc3c(=O)[nH]ccc23)CC1 [BA-2057]	none	–	none	none	prevents the loss of BIII tubulin immunostaining	protect and/or restore retinal ganglion cell dendritic arbors	dose-dependent increase in the number of surviving neurons	mitigated radiation-induced jejunal damage	>96%
